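Step 1: Grow cells in 96-well plates. Step 2: Expose to compound for 48 hours at 5 concentrations. Step 3: Interpolate endpoints linearly; if unreached, use highest concentration. GI50 is the concentration that inhibits growth by half. Definition used: TGI = concentration required for complete inhibition of growth.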
Columns and labels:
Test in all cases: growth of human tumour cells (NCI), 48 h
[1] = system: HL-60(TB) leukemia
[2] = system: BT-549 breast
[3] = system: HOP-62 NSCLC
[4] = system: HOP-92 NSCLC
[5] = system: NCI-H226 lung
[6] = system: HCT-15 colon
[7] = system: LOX IMVI melanoma
[8] = system: UACC-62 melanoma
[9] = system: UO-31 renal
[10] = system: SR leukemia
[11] = system: SF-539 CNS
[12] = system: MOLT-4 leukemia
[13] = system: SF-295 CNS
[14] = system: OVCAR-3 ovarian
[15] = system: NCI-H460 lung
[16] = system: RXF 393 renal
[17] = system: DU-145 prostate
[18] = system: SK-MEL-28 melanoma
[19] = system: HCT-116 colon
[20] = system: ACHN renal
[21] = system: HT29 colon
[22] = system: SK-OV-3 ovarian
[23] = system: T-47D breast
[24] = system: SW-620 colon
[25] = system: SNB-19 CNS
[26] = system: A498 renal
[27] = system: CCRF-CEM leukemia
[28] = system: NCI/ADR-RES ovarian
[29] = system: OVCAR-8 ovarian
[30] = system: MDA-MB-435
[31] = system: HCC-2998 colon
[32] = system: SK-MEL-5 melanoma
[33] = system: COLO 205 colon
[34] = system: SN12C renal
[35] = system: K-562 leukemia
[36] = system: NCI-H522 lung
[37] = system: U251 CNS
[38] = system: SK-MEL-2 melanoma
[39] = system: OVCAR-4 ovarian
[40] = system: IGROV1 ovarian
[41] = system: MCF7 breast
[42] = system: MDA-MB-231 breast
[43] = system: EKVX NSCLC
[44] = system: PC-3 prostate
[45] = system: NCI-H23 lung
[46] = system: MALME-3M melanoma
[47] = system: KM12 colon
[48] = system: RPMI-8226 leukemia
[49] = system: 786-0 renal
[50] = system: SNB-75 CNS
[51] = system: TK-10 renal
[52] = system: HS 578T breast
[53] = system: OVCAR-5 ovarian
[54] = system: SF-268 CNS
[55] = system: M14 melanoma
[56] = system: A549 NSCLC

Q: How did the GI50 [1] turn out when `CC(C)(C#N)c1cc(F)cc(C(=O)Nc2cc(Nc3ncccc3-c3ncnc4nc[nH]c34)ccc2F)c1` was run?
A: 0.123 µM

Q: And the TGI [1]?
A: > 10 µM

Q: And the GI50 [2]?
A: 3.63 µM

Q: And the TGI [2]?
A: > 10 µM

Q: And the GI50 [3]?
A: 0.475 µM

Q: And the TGI [3]?
A: > 10 µM

Q: What about the GI50 [4] of the same molecule?
A: 0.137 µM

Q: What about the TGI [4] of the same molecule?
A: 0.842 µM

Q: And the GI50 [5]?
A: 0.804 µM

Q: And the TGI [5]?
A: > 10 µM

Q: And the GI50 [6]?
A: 3.59 µM

Q: And the TGI [6]?
A: > 10 µM

Q: What about the GI50 [7] of the same molecule?
A: 0.104 µM

Q: And the TGI [7]?
A: 1.8 µM

Q: What about the GI50 [8] of the same molecule?
A: 0.0841 µM

Q: And the TGI [8]?
A: > 10 µM

Q: What about the GI50 [9] of the same molecule?
A: 0.287 µM

Q: And the TGI [9]?
A: 3.64 µM

Q: And the GI50 [10]?
A: 7.31 µM

Q: And the TGI [10]?
A: > 10 µM

Q: And the GI50 [11]?
A: 0.527 µM

Q: And the TGI [11]?
A: 5.65 µM

Q: And the GI50 [12]?
A: 4.27 µM

Q: And the TGI [12]?
A: > 10 µM

Q: And the GI50 [13]?
A: 3.74 µM

Q: And the TGI [13]?
A: > 10 µM

Q: And the GI50 [14]?
A: 5.5 µM

Q: And the TGI [14]?
A: > 10 µM

Q: And the GI50 [15]?
A: 2.51 µM

Q: What about the TGI [15] of the same molecule?
A: > 10 µM

Q: And the GI50 [16]?
A: 2.22 µM

Q: What about the TGI [16] of the same molecule?
A: > 10 µM

Q: What about the GI50 [17] of the same molecule?
A: 5.51 µM

Q: And the TGI [17]?
A: > 10 µM

Q: What about the GI50 [18] of the same molecule?
A: 0.0746 µM

Q: And the TGI [18]?
A: > 10 µM

Q: What about the GI50 [19] of the same molecule?
A: 0.212 µM

Q: What about the TGI [19] of the same molecule?
A: > 10 µM

Q: What about the GI50 [20] of the same molecule?
A: 1.85 µM

Q: What about the TGI [20] of the same molecule?
A: > 10 µM

Q: What about the GI50 [21] of the same molecule?
A: 0.151 µM

Q: What about the TGI [21] of the same molecule?
A: > 10 µM

Q: And the GI50 [22]?
A: > 10 µM

Q: And the TGI [22]?
A: > 10 µM

Q: What about the GI50 [23] of the same molecule?
A: 2.9 µM

Q: What about the TGI [23] of the same molecule?
A: > 10 µM

Q: And the GI50 [24]?
A: 1.13 µM

Q: And the TGI [24]?
A: > 10 µM

Q: What about the GI50 [25] of the same molecule?
A: 4.44 µM

Q: And the TGI [25]?
A: > 10 µM

Q: And the GI50 [26]?
A: 0.2 µM

Q: What about the TGI [26] of the same molecule?
A: 1.09 µM

Q: And the GI50 [27]?
A: 3.91 µM

Q: What about the TGI [27] of the same molecule?
A: > 10 µM

Q: And the GI50 [28]?
A: 4.58 µM

Q: What about the TGI [28] of the same molecule?
A: > 10 µM

Q: What about the GI50 [29] of the same molecule?
A: 3.16 µM

Q: And the TGI [29]?
A: > 10 µM

Q: And the GI50 [30]?
A: 0.307 µM

Q: What about the TGI [30] of the same molecule?
A: > 10 µM

Q: What about the GI50 [31] of the same molecule?
A: 1.12 µM

Q: What about the TGI [31] of the same molecule?
A: > 10 µM

Q: What about the GI50 [32] of the same molecule?
A: 0.635 µM

Q: What about the TGI [32] of the same molecule?
A: > 10 µM

Q: What about the GI50 [33] of the same molecule?
A: 0.109 µM

Q: And the TGI [33]?
A: > 10 µM

Q: What about the GI50 [34] of the same molecule?
A: 3.11 µM

Q: And the TGI [34]?
A: > 10 µM

Q: And the GI50 [35]?
A: 0.606 µM

Q: What about the TGI [35] of the same molecule?
A: > 10 µM

Q: And the GI50 [36]?
A: 2.66 µM

Q: What about the TGI [36] of the same molecule?
A: > 10 µM

Q: And the GI50 [37]?
A: 3.55 µM

Q: And the TGI [37]?
A: > 10 µM

Q: What about the GI50 [38] of the same molecule?
A: 0.144 µM

Q: And the TGI [38]?
A: 1.17 µM

Q: And the GI50 [39]?
A: 4.71 µM

Q: And the TGI [39]?
A: > 10 µM

Q: And the GI50 [40]?
A: 0.684 µM

Q: What about the TGI [40] of the same molecule?
A: > 10 µM

Q: And the GI50 [41]?
A: 8.73 µM

Q: And the TGI [41]?
A: > 10 µM

Q: What about the GI50 [42] of the same molecule?
A: 0.306 µM

Q: What about the TGI [42] of the same molecule?
A: 4.8 µM

Q: What about the GI50 [43] of the same molecule?
A: 6.55 µM

Q: And the TGI [43]?
A: > 10 µM

Q: What about the GI50 [44] of the same molecule?
A: 7.67 µM

Q: What about the TGI [44] of the same molecule?
A: > 10 µM

Q: What about the GI50 [45] of the same molecule?
A: 0.501 µM

Q: What about the TGI [45] of the same molecule?
A: > 10 µM

Q: And the GI50 [46]?
A: 0.0236 µM

Q: And the TGI [46]?
A: 0.074 µM

Q: And the GI50 [47]?
A: 1.73 µM

Q: What about the TGI [47] of the same molecule?
A: > 10 µM

Q: And the GI50 [48]?
A: 1.92 µM

Q: And the TGI [48]?
A: > 10 µM

Q: And the GI50 [49]?
A: > 10 µM

Q: And the TGI [49]?
A: > 10 µM

Q: What about the GI50 [50] of the same molecule?
A: 3.31 µM

Q: What about the TGI [50] of the same molecule?
A: > 10 µM

Q: And the GI50 [51]?
A: > 10 µM

Q: And the TGI [51]?
A: > 10 µM

Q: What about the GI50 [52] of the same molecule?
A: 1.41 µM

Q: And the TGI [52]?
A: > 10 µM

Q: And the GI50 [53]?
A: 0.451 µM

Q: What about the TGI [53] of the same molecule?
A: > 10 µM

Q: And the GI50 [54]?
A: 3.78 µM

Q: And the TGI [54]?
A: > 10 µM

Q: What about the GI50 [55] of the same molecule?
A: 0.0682 µM

Q: And the TGI [55]?
A: 1.02 µM

Q: What about the GI50 [56] of the same molecule?
A: 5.49 µM

Q: What about the TGI [56] of the same molecule?
A: > 10 µM

— PubChem BioAssay (NCI)
